Test results as given in patent US20070197509A1, “Compositions and methods for modulating gated ion channels” (PainCeptor Pharma Corporation, priority 2005, published 2007).

How the values were obtained:
[1] = molecular target: T1, hASIC1a (Homo sapiens, UniProt P78348); experiment: FlexStation/FLIPR calcium-imaging assay, acid (MES)-induced response in ASIC1a expressing cells; type: cell-based; set-up: expressed in transfected cells
T1 sequence (P78348 1-528): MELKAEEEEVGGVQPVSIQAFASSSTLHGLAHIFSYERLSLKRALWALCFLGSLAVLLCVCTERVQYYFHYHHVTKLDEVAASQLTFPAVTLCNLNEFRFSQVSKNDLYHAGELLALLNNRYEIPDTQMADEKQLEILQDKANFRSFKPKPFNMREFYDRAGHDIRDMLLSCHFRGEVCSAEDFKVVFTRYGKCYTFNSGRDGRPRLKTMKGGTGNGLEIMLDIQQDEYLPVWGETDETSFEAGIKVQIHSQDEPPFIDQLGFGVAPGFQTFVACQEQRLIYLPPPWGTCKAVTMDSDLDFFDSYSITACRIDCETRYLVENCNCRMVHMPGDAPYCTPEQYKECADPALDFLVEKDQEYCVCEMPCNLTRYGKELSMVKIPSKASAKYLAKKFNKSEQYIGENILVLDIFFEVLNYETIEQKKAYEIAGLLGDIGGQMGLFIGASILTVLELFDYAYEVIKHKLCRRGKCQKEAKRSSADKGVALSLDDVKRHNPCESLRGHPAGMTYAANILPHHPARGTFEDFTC
Method: Identification of ASIC Antagonists Using Calcium-Imaging
ASIC1a expressing HEK293 or CHO cells are grown in culture medium (DMEM with 10% FBS), in polystyrene culture flasks ([…]) at 37° C. in a humidified atmosphere of 5% CO2. Confluency of cells should be 80-90% on day of plating. Cells are rinsed with 10 ml of PBS and re-suspended by addition of culture medium and trituration with a 25 ml pipette.
The cells are seeded at a density of approximately 1×10^5 cells/ml for HEK293 and 8×10^4 for CHO cells (100 μl/well) in black-walled, clear bottom, poly-D-lysin pre-treated 96-well plates. Plated cells were allowed to proliferate for 48 h before loading with dye.
Fluo-4/AM (1 mg, Molecular Probes) is dissolved in 912 μl DMSO. The Fluo-4/AM stock solution (1 mM) is diluted with culture medium to a final concentration of 2 μM (loading solution).
The culture medium is aspirated from the wells, and 80 μl of the Fluo-4/AM loading solution is added to each well. The cells are incubated at 37° C. for 30 min. When CHO cells are used, probenicid at 2.5 mM (final concentration) is added in the loading solution.
After the loading period (15-20 min., the loading solution is aspirated and the cells are washed twice with 100 μl modified Assay Buffer (145 mM NaCl, 5 mM KCl, 5 mM CaCl2, 1 mM MgCl2, 10 mM HEPES, pH 7.4) to remove extracellular dye. Following the second wash, 100 μl modified Assay Buffer is added to each well and the fluorescence is measured in FLIPR™ or FlexStation™ (Molecular Devices, USA), or any other suitable equipment known to the skilled in the art. When CHO cells are used, probenicid at 2.5 mM (final concentration) is added in the wash buffer.
First addition: 50 μl test solution at a rate of 26 μl/sec and a starting height of 125 μl
Second addition: 50 μl MES solution (20 mM, 5 mM final concentration) at a rate of 26 μl/sec and a starting height of 115 μl.
Reading intervals: pre-incubation—120 sec. antagonist phase, addition of MES at 145 sec. and reading time with agonist 100 sec (total run time of 240 sec).
Fluorescence obtained after stimulation is corrected for the mean basal fluorescence (in modified Assay Buffer).
(§1) The MES-induced peak calcium response (or change in membrane potential), in the presence of test substance, is expressed relative to the MES response alone. Test substances that block the MES-induced calcium response (or change in membrane potential) are re-tested in triplicates. Confirmed hits are picked for further characterization by performing full dose-response curves to determine potency of each hit compound as represented by the IC50 values (i.e., the concentration of the test substance which inhibits 50% of the MES-induced calcium and/or membrane potentiation response; see, for example, FIG. 1).

[2] = system: T2, hASIC3 (h3) and/or hASIC1a (h1a); experiment: FlexStation/FLIPR assay, channel not marked in the cell; type: cell-based, human; conditions: Table H, cells without channel mark; HEK293; read-out: EC50 (μM) Flex/FLIPR
T2 construct: EC50 (μM) in one experiment; HEK293
Description: as §1
(§2) The data shown in Table H was acquired using the FlexStation assay described in Example 1 on HEK293 cells expressing hASIC3 (h3) and/or hASIC1a (h1a).

[3] = molecular target: T1, hASIC1a; experiment: Whole-cell patch clamp of acid-induced currents in cells transfected with hASIC1a; type: cell-based; set-up: expressed in transfected cells; conditions: Table H
Method: Another example of an in vitro assessment method consists of using mammalian heterologous expression systems, which are known to those skilled in the art, and include a variety of mammalian cell lines such as COS, HEK, e.g., HEK293 and/or CHO, cells. Cell lines are transfected with gated ion channel(s) and used to perform electrophysiology as follows:
All experiments are performed at room temperature (20-25° C.) in voltage clamp using conventional whole cell patch clamp methods (Neher, E., et al. (1978) Pfluegers Arch 375:219-228).
The amplifier used is the EPC-9 (HEKA-electronics, Lambrect, Germany) run by a Macintosh G3 computer via an ITC-16 interface. Experimental conditions are set with the Pulse-software accompanying the amplifier. Data is low pass filtered and sampled directly to hard-disk at a rate of 3 times the cut-off frequency.
Pipettes are pulled from borosilicate glass using a horizontal electrode puller (Zeitz-lnstrumente, Augsburg, Germany). The pipette resistances are 2-3 MOhms in the salt solutions used in these experiments. The pipette electrode is a chloridized silver wire, and the reference is a silver chloride pellet electrode (In Vivo Metric, Healdsburg, USA) fixed to the experimental chamber. The electrodes are zeroed with the open pipette in the bath just prior to sealing.
Coverslips with the cells are transferred to a 15 μl experimental chamber mounted on the stage of an inverted microscope (IMT-2, Olympus) supplied with Nomarski optics. Cells are continuously superfused with extracellular saline at a rate of 2.5 ml/min. After giga-seal formation, the whole cell configuration is attained by suction. The cells are held at a holding voltage of −60 mV and at the start of each experiment the current is continuously measured for 45 s to ensure a stable baseline. Solutions of low pH (<7) are delivered to the chamber through a custom-made gravity-driven flowpipe, the tip of which is placed approximately 50 μm from the cell. Application is triggered when the tubing connected to the flowpipe is compressed by a valve controlled by the Pulse-software. Initially, low pH (in general, pH 6.5) is applied for 5 s every 60 s. The sample interval during application is 550 μs. After stable responses are obtained, the extracellular saline as well as the low-pH solution are switched to solutions containing the compound to be tested. The compound is present until responses of repeatable amplitude are achieved. Current amplitudes are measured at the peak of the responses, and effect of the compounds is calculated as the amplitude at compound equilibrium divided by the amplitude of the current evoked by the pulse just before the compound was included.
The following salt solutions are used: extracellular solution (mM): NaCl (140), KCl (4), CaCl2 (2), MgCl2 (4), HEPES (10, pH 7.4); intracellular solution (mM): KCl (120), KOH (31), MgCl2 (1.785), EGTA (10), HEPES (10, pH 7.2). In general, compounds for testing are dissolved in 50% DMSO at 500 fold the highest concentration used.
CHO cells were transfected with hASIC1a and used to perform full dose-inhibition curves with Compound B, and Compound R. Results are expressed as a fraction of the control peak current obtained in the absence of the test substance.

[4] = system: hASIC3 (h3) and/or hASIC1a (h1a); experiment: FlexStation/FLIPR assay, channel not marked in the cell; type: cell-based, human; conditions: FlexStation, Table C
Description: as §1, §2

[5] = molecular target: T1, hASIC1a; experiment: Two-electrode voltage clamp in Xenopus laevis oocytes expressing hASIC1a (OpusExpress); type: cell-based; set-up: expressed in transfected cells; host or cells: Xenopus laevis oocytes, nuclear microinjection of cDNA (e.g. in pCDNA3)
Method: Two-electrode voltage clamp electrophysiological assays in Xenopus laevis oocytes expressing gated ion channels are performed as follows:
Oocytes are surgically removed from adult Xenopus laevis and treated for 2 h at room temperature with 1 mg/ml type I collagenase (Sigma) in Barth's solution under mild agitation. Selected oocytes at stage IV-V are defolliculated manually before nuclear microinjection of 2.5-5 ng of a suitable expression vector, such as pCDNA3, comprising the nucleotide sequence encoding a gated ion channel subunit protein. In such an experiment, the oocytes express homomultimeric proton-gated ion channels on their surface. In an alternate experiment, one, two, three or more vectors comprising the coding sequences for distinct gated ion channel subunits are co-injected in the oocyte nuclei. In the latter case, oocytes express heteromultimeric proton-gated ion channels. […] Once impaled with the microelectrodes, oocytes are continuously superfused at 10-12 ml/min with a modified Ringer's solution containing 97 mM NaCl, 2 mM KCl, 1.8 mM CaCl2, and 10 mM HEPES brought to pH 7.4 with NaOH (Control Ringer). Test Ringer solution is prepared by replacing HEPES with MES and adjusting the pH to the desired acidic value. Compounds of the present invention are prepared in both the Control and Test Ringer solutions and applied to oocytes at room temperature through a computer-controlled switching valve system. […] Similarly, recordings can also be acquired in an automated multichannel oocytes system as the OpusExpress™ (Molecular Devices, Sunnyvale, Calif., USA).
Recordings were acquired from oocytes expressing homomeric hASIC1a using a two-electrode voltage-clamp configuration procedure as described herein.

[6] = molecular target: T3, hASIC3 (Homo sapiens, UniProt Q9UHC3); experiment: FlexStation assay on HEK293 cells expressing hASIC3; type: cell-based; set-up: expressed in transfected cells; host or cells: HEK293 cells; conditions: for IC50: FlexStation (Flex), Tables A-F, read-out: Biological Data (IC50 uM) h3 (Flex)
T3 sequence (Q9UHC3 1-531): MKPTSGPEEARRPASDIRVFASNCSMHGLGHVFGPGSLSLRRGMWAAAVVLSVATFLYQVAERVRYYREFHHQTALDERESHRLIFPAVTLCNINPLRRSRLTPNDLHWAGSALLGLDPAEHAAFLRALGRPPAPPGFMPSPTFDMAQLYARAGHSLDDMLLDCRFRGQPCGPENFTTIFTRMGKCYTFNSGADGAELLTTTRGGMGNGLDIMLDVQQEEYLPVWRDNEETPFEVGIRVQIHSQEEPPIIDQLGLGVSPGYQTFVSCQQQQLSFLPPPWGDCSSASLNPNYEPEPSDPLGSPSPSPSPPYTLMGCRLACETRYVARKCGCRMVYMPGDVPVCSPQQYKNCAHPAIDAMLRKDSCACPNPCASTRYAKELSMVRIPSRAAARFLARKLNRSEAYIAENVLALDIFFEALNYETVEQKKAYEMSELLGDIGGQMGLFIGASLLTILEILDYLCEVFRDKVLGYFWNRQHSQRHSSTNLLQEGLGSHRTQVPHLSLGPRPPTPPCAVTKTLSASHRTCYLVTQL
Method: A vial of FMP dye (Molecular Devices) is resuspended in 10.5 ml of assay buffer (48.3 mM NaCl, 93 mM NMDG, 5 mM KCl, 5 mM CaCl2, 1 mM MgCl2, 10 mM HEPES, pH 7.4). The culture medium is aspirated from the wells, and 100 μl of the FMP loading solution is added to each well. The cells are incubated at 37° C. for 30 min.
After the loading period, the loading solution is left on the cells and the membrane potential-induced fluorescence is measured in FLIPR™ or FlexStation™ (Molecular Devices, USA), or any other suitable equipment known to the skilled in the art.
For cells co-expressing ASIC1a and ASIC3 channels (e.g. HEK293 cells), membrane potential dye (FMP dye) is used and the FlexStation settings are as above.
as §1, §2

[7] = OpusExpress (OX), Tables A-F, h1a printed in some cells only, read-out: Biological Data (IC50 uM) h1a (OX)
[8] = Table H, read-out: IC50 (μM) Opus Express (h1a)
[9] = FlexStation (Flex), Tables A-F, read-out: Biological Data (IC50 uM) h1a (Flex)

## Brc1ccc(-c2nc(N3CCNCC3)c3ccccc3n2)cc1 [Compound C, 2-(4-bromo-phenyl)-4-piperazin-1-yl-quinazoline]
[1]; calcium mobilization assay, HEK293, n=3-7, read-out: FPAT-ASIC1a human/HEK293/k21 IC50
  IC50: > 20 µM

## Cc1cc(N2CCCN(C)CC2)nc2cc(Cl)ccc12 [Compound F, 7-chloro-4-methyl-2-(4-methyl-[1,4]diazepan-1-yl)-quinoline]
[2]
  EC50: < 10 µM
[3]
  IC50 (μM) Patch Clamp (h1a): Inactive

## COc1ccc(-c2cc(C(=O)O)c3cc(Cl)ccc3n2)cc1 [Compound 38, 6-chloro-2-(4-methoxy-phenyl)-quinoline-4-carboxylic acid]
[4]
  Biological Data (Flex), channel not given: Not Active (Flex)

## Cc1ccc(-c2nc(Nc3ccc(C(=O)O)cc3)c3ccccc3n2)cc1 [Compound K, 4-(2-p-tolyl-quinazolin-4-ylamino)-benzoic acid]
[2]
  EC50: > 10 µM
[3]
  IC50 (μM) Patch Clamp (h1a): Inactive
[5]; Table H
  IC50 (μM) Opus Express (h1a): Inactive

## Cc1cc(N2CCN(CC3CCCCC3)CC2)c2ccccc2n1 [Compound O, 4-(4-cyclohexylmethyl-piperazin-1-yl)-2-methyl-quinoline]
[2]
  EC50: > 20 µM
[6]
  IC50: 5 to 15 µM
[5]; [7]
  IC50: 20 to 30 µM
[5]; [8]
  IC50: 23.9 µM

## O=C(O)c1cccc(Nc2nc(-c3ccc(Cl)cc3Cl)nc3ccccc23)c1 [Compound 101, 3-[2-(2,4-dichloro-phenyl)-quinazolin-4-ylamino]-benzoic acid]
[1]; [9]
  IC50: 20 to 30 µM
[6]
  IC50: > 50 µM

## Clc1ccc2c(N3CCNCC3)ccnc2c1 [Compound H, 7-chloro-4-piperazin-1-yl-quinoline]
[1]; [9]
  IC50: 2 to 10 µM
[6]
  EC50: < 10 µM
  IC50: 5 to 15 µM
[5]; [7]
  IC50: 30 to 50 µM
[5]; [8]
  IC50: 43.7 µM

## COc1ccc(-c2cc(C(=O)O)c3ccccc3n2)cc1OC [Compound 39, 2-(3,4-Dimethoxy-phenyl)-quinoline-4-carboxylic acid]
[4]
  Biological Data (Flex), channel not given: Not Active (Flex)
